Earlier results as cited in article PMC11477167, “Structure–Function Relationship of a Novel MTX-like Peptide (MTX1) Isolated and Characterized from the Venom of the Scorpion Maurus palmatus” (International Journal of Molecular Sciences, 2024).

Tests used:
glioblastoma = settings: subject of clinical trials; ref [9],[12],[13]; cited from earlier work
From the text: (§1) For instance, several research projects have focused on the use of scorpion neurotoxins as potential new treatments against cancers.

[1] = tested on: glioma and melanoma cells; settings: glioma (charybdotoxin) and melanoma (iberiotoxin); ref [12],[14]; cited from earlier work
From the text: as §1

[2] = tested on: human lung adenocarcinoma cells; settings: by blocking Kv1.2 and Kv1.3; ref [15],[16]; cited from earlier work
From the text: as §1

chlorotoxin
Effect on glioblastoma cells (glioblastoma): specifically targets the invasion and migration of glioblastoma cells

iberiotoxin (QFTDVDCSVSKECWSVCKDLFGVDRGKCMGKKCRCYQ; UniProt P24663 1-37, looked up)
Inhibition of tumor cell proliferation and migration [1]: able to inhibit glioma and melanoma cell proliferation and migration

margatoxin (TIINVKCTSPKQCLPPCKAQFGQSAGAKCMNGKCKCYPH; UniProt P40755 1-39, looked up)
Inhibition of proliferation [2]: inhibited the proliferation of human lung adenocarcinoma cells
